Laboratory results taken from US11608323B2 (SYNGENTA LIMITED, priority 2013, dated 2023).

Columns and labels:
Type in all cases: in vivo
SETFA [1] = experiment: Post-emergence herbicidal activity, glasshouse pot test; conditions: Setaria faberi; application post-emergence; rate 1000 g/Ha; evaluated after 13 days
How it was run: (§1)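 Foliar application to 8-day-old plants using a 0.5% Tween 20 acetone/water carrier; phytotoxicity is scored visually from 0 to 5 after 13 days of growth at 24/16 °C day/night.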

ABUTH [2] = experiment: as above; conditions: Abutilon theophrasti; application post-emergence; rate 1000 g/Ha; evaluated after 13 days
How it was run: as §1

ALOMY [3] = experiment: as above; conditions: Alopecurus myosuroides; application post-emergence; rate 1000 g/Ha; evaluated after 13 days
How it was run: as §1

ECHCG [4] = experiment: as above; conditions: Echinochloa crus-galli; application post-emergence; rate 1000 g/Ha; evaluated after 13 days
How it was run: as §1

ZEAMX [5] = experiment: as above; conditions: Zea mays; application post-emergence; rate 1000 g/Ha; evaluated after 13 days
How it was run: as §1

AMARE [6] = experiment: as above; conditions: Amaranthus retroflexus; application post-emergence; rate 1000 g/Ha; evaluated after 13 days
How it was run: as §1

SETFA [7] = experiment: Pre-emergence herbicidal activity, glasshouse pot test; conditions: rate 1000 g/Ha, evaluated after 13 days, scale 0-5
How it was run: (§2)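 Damage rated 13 days post-treatment on a 0-5 scale, 5 meaning total plant damage. Pots were sprayed pre-emergence, one day after sowing, with an acetone/water-derived aqueous spray containing 0.5% Tween 20. Plants grew under 14 h light, 65% humidity, 24/16 °C, watered twice daily.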

ABUTH [8] = experiment: as above; conditions: rate 1000 g/Ha, evaluated after 13 days, scale 0-5
How it was run: as §2

ALOMY [9] = experiment: as above; conditions: rate 1000 g/Ha, evaluated after 13 days, scale 0-5
How it was run: as §2

ECHCG [10] = experiment: as above; conditions: rate 1000 g/Ha, evaluated after 13 days, scale 0-5
How it was run: as §2

ZEAMX [11] = experiment: as above; conditions: rate 1000 g/Ha, evaluated after 13 days, scale 0-5
How it was run: as §2

AMARE [12] = experiment: as above; conditions: rate 1000 g/Ha, evaluated after 13 days, scale 0-5
How it was run: as §2

| Compound | Post-emergence herbicidal activity SETFA (damage score 0-5) (SETFA [1]) | Post-emergence herbicidal activity ABUTH (damage score 0-5) (ABUTH [2]) | Post-emergence herbicidal activity ALOMY (damage score 0-5) (ALOMY [3]) | Post-emergence herbicidal activity ECHCG (damage score 0-5) (ECHCG [4]) | Post-emergence herbicidal activity ZEAMX (damage score 0-5) (ZEAMX [5]) | Post-emergence herbicidal activity AMARE (damage score 0-5) (AMARE [6]) | SETFA damage score, application pre-emergence (SETFA [7]) | ABUTH damage score, application pre-emergence (ABUTH [8]) | ALOMY damage score, application pre-emergence (ALOMY [9]) | ECHCG damage score, application pre-emergence (ECHCG [10]) | ZEAMX damage score, application pre-emergence (ZEAMX [11]) | AMARE damage score, application pre-emergence (AMARE [12]) |
| --- | --- | --- | --- | --- | --- | --- | --- | --- | --- | --- | --- | --- |
| CCOC1C(OC(C)=O)N(c2cc(C(F)(F)F)ccn2)C(=O)N1C (stereo not drawn) [Compound A96] | 5 | 5 | 5 | 5 | 3 | 5 | 4 | 5 | 4 | 4 | 1 | 5 |
| CCOC1C(OC(=O)[C@@H](OC(C)=O)c2ccccc2)N(c2cc(C(F)(F)F)ccn2)C(=O)N1C (stereo partly drawn) [Compound A97] | 5 | 5 | 5 | 5 | 3 | 5 | 4 | 5 | 4 | 4 | 3 | 5 |
| CCOC1C(OC(=O)[C@@H]2[C@@H](C=C(Cl)Cl)C2(C)C)N(c2cc(C(F)(F)F)ccn2)C(=O)N1C (stereo partly drawn) [Compound A98] | 0 | 0 | 0 | 0 | 1 | 4 | 0 | 0 | 0 | 0 | 0 | 0 |
| CCOC1C(OC(=O)[C@@H](C)c2ccc(CC(C)C)cc2)N(c2cc(C(F)(F)F)ccn2)C(=O)N1C (stereo partly drawn) [Compound A99] | 0 | 1 | 0 | 3 | 1 | 5 | 0 | 1 | 0 | 0 | 0 | 5 |
| CCOC1C(OC(=O)[C@@H]2CCCO2)N(c2cc(C(F)(F)F)ccn2)C(=O)N1C (stereo partly drawn) [Compound A100] | 5 | 5 | 5 | 5 | 4 | 5 | 3 | 5 | 4 | 3 | 1 | 5 |
| CCO[C@@H]1[C@@H](OC(=O)C(C)Cl)N(c2cc(C(F)(F)F)ccn2)C(=O)N1C (stereo partly drawn) [Compound A101] | 5 | 5 | 5 | 5 | 3 | 5 | 4 | 5 | 4 | 4 | 0 | 5 |
